Patent US20100261767A1, “OXADIAZOLE DERIVATIVES FOR USE AS S1P1 AGONISTS IN THE TREATMENT OF AUTOIMMUNE AND INFLAMMATORY DISORDERS” (priority 2007, published 2010)
Where a name gives a salt, the structure may show the parent alone.

Experiments:
human S1P1 receptor = biological target: T1, human S1P1 receptor (Homo sapiens, UniProt P21453); test: S1P1 GTPγS Assay; type: biochemical; conditions: human S1P1 rat hepatoma membranes, agonist
T1 construct: expressed in transfected cells; membranes
Experimental: Membrane Preparation for S1P1 GTPγS Assay
For membrane preparations all steps were performed at 4° C. Rat hepatoma cells stably expressing the human S1P1 receptor or Rat Basophilic Leukaemia cells (RBL) stably expressing human S1P3 receptor were grown to 80% confluency before being harvested into 10 ml Phospho-Buffered Saline (PBS) and centrifuged at 1200 rpm for 5 minutes. After removal of the supernatant, the pellet was re-suspended and cells were homogenised within a glass Waring blender for 2 bursts of 15 secs in 200 mls of buffer (50 mM HEPES, 1 mM leupeptin, 25 μg/ml bacitracin, 1 mM EDTA, 1 mM PMSF, 2 μM pepstatin A). The blender was plunged into ice for 5 mins after the first burst and 10-40 mins after the final burst to allow foam to dissipate. […]
After 30 minutes pre-coupling on ice the bead and membrane suspension was dispensed into a white Greiner polypropylene LV384-well plate (5 μl/well), containing 0.1 μl of the compound. […] The final assay cocktail (10.1 μl) was then centrifuged at 1000 rpm for 5 minutes then read immediately on a Viewlux reader. […]
(§1) After 30 minutes precoupling on ice, the bead and membrane suspension was dispensed into white Greiner polypropylene LV 384-well plates (5 μl/well), containing 0.1 μl of compound. […] The final assay cocktail (10.1 μl) was then sealed, spun on a centrifuge, then read immediately on a Viewlux instrument.

human S1P3 receptor = biological target: T2, human S1P3 receptor (Homo sapiens, UniProt Q99500); test: S1P3 GTPγS Assay; type: biochemical; conditions: S1P3 RBL-2H3 membranes, agonist
T2 construct: expressed in transfected cells; membranes
Experimental: For membrane preparations all steps were performed at 4° C. Rat hepatoma cells stably expressing the human S1P1 receptor or Rat Basophilic Leukaemia cells (RBL) stably expressing human S1P3 receptor were grown to 80% confluency before being harvested into 10 ml Phospho-Buffered Saline (PBS) and centrifuged at 1200 rpm for 5 minutes. After removal of the supernatant, the pellet was re-suspended and cells were homogenised within a glass Waring blender for 2 bursts of 15 secs in 200 mls of buffer (50 mM HEPES, 1 mM leupeptin, 25 μg/ml bacitracin, 1 mM EDTA, 1 mM PMSF, 2 μM pepstatin A). The blender was plunged into ice for 5 mins after the first burst and 10-40 mins after the final burst to allow foam to dissipate. The material was then spun at 500 g for 20 mins and the supernatant spun for 36 mins at 48,000 g. The pellet was resuspended in the same buffer as above but without PMSF and pepstatin A. The material was then forced through a 0.6 mm needle, made up to the required volume, (usually ×4 the volume of the original cell pellet), aliquoted and stored frozen at −80° C.
S1P3 membranes from rat basophilic leukaemia cells (RBL-2H3) (1.5 μg/well) were adhered to WGA-coated SPA beads (0.125 mg/well) in assay buffer (HEPES 20 mM, MgCl2 3 mM, NaCl 100 mM and pH adjusted to 7.4 using KOH 5M), GDP 10 μM FAC and saponin 90 μg/ml FAC was also added).
After 30 minutes pre-coupling on ice the bead and membrane suspension was dispensed into a white Greiner polypropylene LV384-well plate (5 μl/well), containing 0.1 μl of the compound. 5 μl/well [^35S]-GTPγS (0.5 nM final radioligand conc) made up in assay buffer was then added to agonist plates. The final assay cocktail (10.1 μl) was centrifuged at 1000 rpm for 5 minutes then read immediately on a Viewlux reader. […]
as §1

T2 sequence (Q99500 whole entry): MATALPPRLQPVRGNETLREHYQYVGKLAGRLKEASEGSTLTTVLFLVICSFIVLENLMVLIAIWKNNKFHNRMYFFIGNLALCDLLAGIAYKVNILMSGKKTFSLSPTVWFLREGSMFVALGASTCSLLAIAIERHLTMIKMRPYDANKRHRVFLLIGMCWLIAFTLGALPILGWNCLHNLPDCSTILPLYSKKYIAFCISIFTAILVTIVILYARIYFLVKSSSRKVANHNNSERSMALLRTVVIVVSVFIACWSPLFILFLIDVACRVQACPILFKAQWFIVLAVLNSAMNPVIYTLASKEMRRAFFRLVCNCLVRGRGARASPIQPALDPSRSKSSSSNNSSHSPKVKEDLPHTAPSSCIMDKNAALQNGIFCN
T1 sequence (P21453 whole entry): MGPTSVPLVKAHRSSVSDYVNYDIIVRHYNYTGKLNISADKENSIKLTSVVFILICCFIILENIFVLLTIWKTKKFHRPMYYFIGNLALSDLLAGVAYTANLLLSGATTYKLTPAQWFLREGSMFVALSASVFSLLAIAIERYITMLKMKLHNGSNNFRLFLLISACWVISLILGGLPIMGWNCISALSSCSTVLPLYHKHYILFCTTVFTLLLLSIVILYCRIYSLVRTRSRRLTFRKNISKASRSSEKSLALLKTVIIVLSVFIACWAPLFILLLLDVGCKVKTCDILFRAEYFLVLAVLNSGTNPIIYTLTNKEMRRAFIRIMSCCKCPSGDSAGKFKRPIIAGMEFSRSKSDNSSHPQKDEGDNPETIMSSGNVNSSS

Structure (SMILES) | EC50 (human S1P1 receptor) [µM] | EC50 (human S1P3 receptor) [µM]
CC(C)Oc1ccc(-c2nc(-c3cccc4c3CNC4)no2)cc1C#N [Example 1, 5-[3-(2,3-Dihydro-1H-isoindol-4-yl)-1,2,4-oxadiazol-5-yl]-2-[(1-methylethyl)oxy]benzonitrile hydrochloride] | < 0.01 | > 10
CC(C)Oc1ccc(-c2nc(-c3cccc4c3CNC4)no2)cc1Cl [Example 2, 4-(5-{3-Chloro-4-[(1-methylethyl)oxy]phenyl}-1,2,4-oxadiazol-3-yl)-2,3-dihydro-1H-isoindole] | < 0.01 | > 10
CC(C)Oc1ccc(-c2nc(-c3cccc4c3CN(CCCC(=O)O)C4)no2)cc1C#N [Example 5, 4-[4-(5-{3-cyano-4-[(1-methylethyl)oxy]phenyl}-1,2,4-oxadiazol-3-yl)-1,3-dihydro-2H-isoindol-2-yl]butanoic acid] | – | > 10
